Patent publication US8080657B2, “Compounds of reverse turn mimetics and the use thereof” (Choongwae Pharma Corporation, priority 2008, dated 2011)
Where two headings read alike, the source gives them in different places.

Target: T1, cDNA-expressed human hepatic CYP3A4 (Homo sapiens, UniProt P08684)
T1 construct: purchased BD Gentest 456202
Experiment: P450 CYP3A4 inhibitory activity screening (BFC substrate, fluorescence)
Format: biochemical
Experimental: P450 CYP3A4 Inhibitory Activity Screening
Assay was conducted in a 200 μL volume in 96-well microtiter plates using cDNA-expressed human hepatic CYP3A4 (supersome, BD Gentest™ #456202). 7-Benzyloxy-4-trifluoromethyl-coumarin (BFC) was used as a substrate for CYP3A4. Test articles and substrate BFC were dissolved in 100% acetonitrile. The final volume of acetonitrile in the incubation mixture was less than 1% (volume/volume). Potassium phosphate buffer (pH 7.4, final concentration 0.1 M), MgCl2 (final concentration 8.3 mM), EDTA (final concentration 1.67 mM), a test article stock solution, a CYP3A4 supersome and NADPH (final concentration 0.25 mM) were added to each well. The reaction was initiated by the addition of substrate (BFC, final concentration 30 µM) after a 10 min pre-incubation at 37° C. After 10 min incubation at 37° C., the reaction was terminated by the addition of 75 μL of acetonitrile:0.5 M Tris-base=4:1 (volume/volume). Thereafter, Fluorescent signal was measured using a fluorometer. BFC metabolite, 7-hydroxy-4-trifluoromethyl-coumarin, was measured using an excitation wavelength of 409 nm and an emission wavelength of 530 nm.

[1] = P450 CYP3A4 inhibitory activity screening, fluorescent assay, read-out: CYP3A4 inhibition, IC50 (μM) fluorescent assay
[2] = human CYP3A4 supersome, substrate BFC, 10 min incubation at 37° C., read-out: IC50 values of Compounds against CYP3A4 activity

T1 sequence (P08684 whole entry): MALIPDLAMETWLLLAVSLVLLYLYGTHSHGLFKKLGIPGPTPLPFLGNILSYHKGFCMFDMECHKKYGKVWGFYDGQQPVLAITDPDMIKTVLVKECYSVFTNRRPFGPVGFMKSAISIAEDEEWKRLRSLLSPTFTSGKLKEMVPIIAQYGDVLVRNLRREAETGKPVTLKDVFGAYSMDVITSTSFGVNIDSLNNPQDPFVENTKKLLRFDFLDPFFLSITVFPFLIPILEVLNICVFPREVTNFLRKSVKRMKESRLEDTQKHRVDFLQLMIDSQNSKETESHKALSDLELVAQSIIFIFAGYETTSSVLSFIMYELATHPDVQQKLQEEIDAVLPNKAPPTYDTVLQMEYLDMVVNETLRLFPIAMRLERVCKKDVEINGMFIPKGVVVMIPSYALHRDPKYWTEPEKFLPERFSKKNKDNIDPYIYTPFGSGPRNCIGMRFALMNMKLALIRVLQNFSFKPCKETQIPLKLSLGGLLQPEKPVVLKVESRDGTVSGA

Structure (SMILES) | IC50 [1] [µM] | IC50 [2] [µM]
C=CCN1CC(=O)N2[C@@H](Cc3ccc(O)cc3)C(=O)N(Cc3cccc4c(=O)ccoc34)C[C@@H]2N1C(=O)NCc1ccccc1 [compound 9] | 6.95 | 
C=CCN1CC(=O)N2[C@@H](Cc3ccc(O)cc3)C(=O)N(Cc3ccccc3S(C)(=O)=O)C[C@@H]2N1C(=O)NCc1ccccn1 [compound 34] | 24.5 | 
C=CCN1CC(=O)N2[C@@H](Cc3ccc(O)cc3)C(=O)N(Cc3cccc(C(=O)O)c3)C[C@@H]2N1C(=O)NCc1ccc(Cl)cc1Cl [compound 50] | > 50 | 
C=CCN1CC(=O)N2[C@@H](Cc3ccc(O)cc3)C(=O)N(Cc3cccc(C(=O)NCCO)c3)C[C@@H]2N1C(=O)NCc1ccccc1 [compound 42] | 44.1 | 
C=CCN1CC(=O)N2[C@@H](Cc3ccc(O)cc3)C(=O)N(Cc3cccc(N(C)C(=O)OC)c3)C[C@@H]2N1C(=O)NCc1ccccc1 [compound 21] | 10.2 | 
C=CCN1CC(=O)N2[C@@H](Cc3ccc(O)cc3)C(=O)N(Cc3cccc(NC(=O)NC(N)=O)c3)C[C@@H]2N1C(=O)NCc1ccccc1 [compound 27] | 16.8 | 
C=CCN1CC(=O)N2[C@@H](Cc3ccc(O)cc3)C(=O)N(Cc3cccc(N(C)C(=O)OC)c3)C[C@@H]2N1C(=O)NCc1ccccc1 [D] |  | 10.2
C=CCN1CC(=O)N2[C@@H](Cc3ccc(O)cc3)C(=O)N(Cc3cccc4c(C(=O)C5CC5)c[nH]c34)C[C@@H]2N1C(=O)NCc1ccccc1 [compound 61] | 5.92 | 
C=CCN1CC(=O)N2[C@@H](Cc3ccc(OS(N)(=O)=O)cc3)C(=O)N(Cc3cccc(N4CCCC4=O)c3)C[C@@H]2N1C(=O)NCc1ccccc1 [compound 16] | 9 | 
O=C(O)c1cccc(CN2C[C@H]3N(C(=O)CN(Cc4ccccc4)N3C(=O)NCc3ccccc3)[C@@H](Cc3ccc(O)cc3)C2=O)c1 [compound 49] | > 50 | 
C=CCN1CC(=O)N2[C@@H](Cc3ccc(O)cc3)C(=O)N(Cc3ccc(CP(=O)(O)O)cc3)C[C@@H]2N1C(=O)NCc1ccccc1 [compound 57] | > 50 | 
C=CCN1CC(=O)N2[C@@H](Cc3ccc(OS(N)(=O)=O)cc3)C(=O)N(Cc3cccc(C(=O)NC)n3)C[C@@H]2N1C(=O)NCc1ccccc1 [compound 35] | 26.4 | 
C=CCN1CC(=O)N2[C@@H](Cc3ccc(O)cc3)C(=O)N(Cc3cccnc3N3CCC(N4CCCC4)CC3)C[C@@H]2N1C(=O)NCc1ccccc1 [compound 7] | 6.84 | 
C=CCN1CC(=O)N2[C@@H](Cc3ccc(O)cc3)C(=O)N(Cc3cccc(C(=O)N[C@@H](CCC(=O)O)C(=O)O)c3)C[C@@H]2N1C(=O)NCc1ccccc1 [compound 51] | > 50 | 
C=CCN1CC(=O)N2[C@@H](Cc3ccc(O)cc3)C(=O)N(Cc3cccc(C(=O)NCC4CCCO4)c3)C[C@@H]2N1C(=O)NCc1ccccc1 (some centres unmarked) [compound 17] | 9.02 | 
C=CCN1CC(=O)N2[C@@H](Cc3ccc(O)cc3)C(=O)N(Cc3cccc4c3ncn4CCC)C[C@@H]2N1C(=O)NCc1ccccc1 [compound 14] | 8.42 | 
C=CCN1CC(=O)N2[C@@H](Cc3ccc(O)cc3)C(=O)N(Cc3cccc(C(=O)N4CCOCC4)c3)C[C@@H]2N1C(=O)NCc1ccccc1 [compound 20] | 10.1 | 

Structure (SMILES) | IC50 [1] [µM] | IC50 [2] [µM]
CN1CC(=O)N2[C@@H](Cc3ccc(O)cc3)C(=O)N(Cc3cccc4c3ncn4C)C[C@@H]2N1C(=O)NCc1ccccc1 [compound 40] | 39.1 | 
C=CCN1CC(=O)N2[C@@H](Cc3ccc(O)cc3)C(=O)N(Cc3cccc4c3ncn4CC(N)=O)C[C@@H]2N1C(=O)NCc1ccccc1 [compound 58] | > 50 | 
C=CCN1CC(=O)N2[C@@H](Cc3ccc(O)cc3)C(=O)N(Cc3ccccc3-n3cnnn3)C[C@@H]2N1C(=O)NCc1ccccc1 [compound 26] | 13.5 | 
C=CCN1CC(=O)N2[C@@H](Cc3ccc(O)cc3)C(=O)N(Cc3cccc(NS(C)(=O)=O)c3)C[C@@H]2N1C(=O)NCc1ccccc1 [compound 18] | 9.16 | 
C=CCN1CC(=O)N2[C@@H](Cc3ccc(O)cc3)C(=O)N(Cc3cccc4c(C(C)=O)c[nH]c34)C[C@@H]2N1C(=O)NCc1ccccc1 [compound 60] | 4.84 | 
C=CCN1CC(=O)N2[C@@H](Cc3ccc(O)cc3)C(=O)N(Cc3cccc(C(=O)N(C)C)c3)C[C@@H]2N1C(=O)NCc1ccccc1 [compound 22] | 11.6 | 
C=CCN1CC(=O)N2[C@@H](Cc3ccc(O)cc3)C(=O)N(Cc3cccc(-c4ccc(S(C)(=O)=O)cc4)n3)C[C@@H]2N1C(=O)NCc1ccccc1 [compound 6] | 6.78 | 
C=CCN1CC(=O)N2[C@@H](Cc3ccc(OS(N)(=O)=O)cc3)C(=O)N(Cc3cccc4c3ncn4C)C[C@@H]2N1C(=O)NCc1ccccn1 [compound 23] | 12 | 
C=CCN1CC(=O)N2[C@@H](Cc3ccc(O)cc3)C(=O)N(Cc3cccc(C(N)=O)c3[N+](=O)[O-])C[C@@H]2N1C(=O)NCc1ccccc1 [compound 43] | 44.4 | 
C=CCN1CC(=O)N2[C@@H](Cc3ccccc3)C(=O)N(Cc3cccc(C(=O)O)c3)C[C@@H]2N1C(=O)NCc1ccccc1 [compound 48] | > 50 | 
C=CCN1CC(=O)N2[C@@H](Cc3ccc(O)cc3)C(=O)N(Cc3cccc4c3nc(C(F)(F)F)n4C)C[C@@H]2N1C(=O)NCc1ccccc1 [E] |  | > 10
C=CCN1CC(=O)N2[C@@H](Cc3ccc(O)cc3)C(=O)N(Cc3cccc(C(=O)NOC)c3)C[C@@H]2N1C(=O)NCc1ccccc1 [compound 41] | 41.4 | 
C=CCN1CC(=O)N2[C@@H](Cc3ccc(O)cc3)C(=O)N(Cc3cccc4c3nc(C(F)(F)F)n4C)C[C@@H]2N1C(=O)NCc1ccccc1 [compound 45] | > 10 | 
C=CCN1CC(=O)N2[C@@H](Cc3ccc(O)cc3)C(=O)N(Cc3cccc(-c4ccc[nH]c4=O)c3)C[C@@H]2N1C(=O)NCc1ccccc1 [compound 10] | 7.02 | 
C=CCN1CC(=O)N2[C@@H](Cc3ccc(O)cc3)C(=O)N(Cc3cccc(-c4cccc(C(=O)O)c4)c3)C[C@@H]2N1C(=O)NCc1ccccc1 [compound 24] | 12.9 | 
C=CCN1CC(=O)N2[C@@H](Cc3ccc(O)cc3)C(=O)N(Cc3cccc(C(=O)NCCOC)n3)C[C@@H]2N1C(=O)NCc1ccccc1 [compound 32] | 19.9 | 

Next, values leading:

IC50 [1] [µM] | IC50 [2] [µM] | Structure (SMILES)
13.1 |  | C=CCN1CC(=O)N2[C@@H](Cc3ccc(O)cc3)C(=O)N(Cc3cccc(C(=O)NC)n3)C[C@@H]2N1C(=O)NCc1ccccc1 [compound 25]
> 50 |  | C=CCN1CC(=O)N2[C@@H](Cc3ccc(O)cc3)C(=O)N(Cc3cccc(C(N)=O)n3)C[C@@H]2N1C(=O)NCc1ccccc1 [compound 52]
18.7 |  | C=CCN1CC(=O)N2C(CN(Cc3ccccc3S(C)(=O)=O)C(=O)[C@@H]2Cc2ccc(O)cc2)N1C(=O)NCc1ccccc1 (some centres unmarked) [compound 30]
5.33 |  | C=CCN1CC(=O)N2[C@@H](Cc3ccc(O)cc3)C(=O)N(Cc3cccnc3Br)C[C@@H]2N1C(=O)NCc1ccccc1 [compound 3]
> 50 |  | C=CCN1CC(=O)N2[C@@H](Cc3ccc(O)cc3)C(=O)N(Cc3cccc(C(=O)O)c3)C[C@@H]2N1C(=O)NCc1ccccc1 [compound 54]
24.2 |  | C=CCN1CC(=O)N2[C@@H](Cc3ccc(O)cc3)C(=O)N(Cc3cccc(NC(=O)OC)c3)C[C@@H]2N1C(=O)NCc1ccccc1 [compound 33]
> 50 |  | C=CCN1CC(=O)N2[C@@H](Cc3ccc(O)cc3)C(=O)N(Cc3cccc(C(N)=O)c3)C[C@@H]2N1C(=O)NCc1ccccc1 [compound 53]
 | 13.1 | C=CCN1CC(=O)N2[C@@H](Cc3ccc(O)cc3)C(=O)N(Cc3cccc(C(=O)NC)n3)C[C@@H]2N1C(=O)NCc1ccccc1 [A]
8.79 |  | C=CCN1CC(=O)N2[C@@H](Cc3ccc(O)cc3)C(=O)N(Cc3cccc(C(C)=O)c3)C[C@@H]2N1C(=O)NCc1ccccc1 [compound 15]
> 50 |  | C=CCN1CC(=O)N2[C@@H](Cc3ccc(O)cc3)C(=O)N(Cc3cccc(C(=O)O)n3)C[C@@H]2N1C(=O)NCc1ccccc1 [compound 56]
18.1 |  | C#CCN1C[C@H]2N(C(=O)CN(CC=C)N2C(=O)NCc2ccccc2)[C@@H](Cc2ccc(O)cc2)C1=O [compound 29]
 | 24.2 | C=CCN1CC(=O)N2[C@@H](Cc3ccc(O)cc3)C(=O)N(Cc3cccc(NC(=O)OC)c3)C[C@@H]2N1C(=O)NCc1ccccc1 (single isomer, unassigned) [C]
5.23 |  | C=CCN1CC(=O)N2[C@@H](Cc3ccc(O)cc3)C(=O)N(Cc3cccc(N(C)C=O)c3)C[C@@H]2N1C(=O)NCc1ccccc1 [compound 2]
17.9 |  | C=CCN1CC(=O)N2[C@@H](Cc3ccc(O)cc3)C(=O)N(Cc3cccc(NC(C)=O)c3)C[C@@H]2N1C(=O)NCc1ccccc1 [compound 28]
7.58 |  | C=CCN1CC(=O)N2[C@@H](Cc3ccc(O)cc3)C(=O)N(Cc3cccc(C(=O)OC)c3)C[C@@H]2N1C(=O)NCc1ccccc1 [compound 11]
9.65 |  | C=CCN1CC(=O)N2[C@@H](Cc3ccc(O)cc3)C(=O)N(Cc3cccc(C#N)c3)C[C@@H]2N1C(=O)NCc1ccccc1 [compound 19]
34.3 |  | C=CCN1CC(=O)N2[C@@H](Cc3ccc(O)cc3)C(=O)N(Cc3cccc(NC(N)=O)c3)C[C@@H]2N1C(=O)NCc1ccccc1 [compound 37]
